ChEMBL document CHEMBL5344418, “Recent developments in antimalarial activities of 4-aminoquinoline derivatives” (Eur J Med Chem, 2023)

What was measured:
[1] = Cytotoxicity against African green monkey Vero cells; assay type: toxicity, cell-based; settings: chlorocebus sabaeus
[2] = Cytotoxicity against African green monkey Vero cells assessed as reduction in cell viability incubated for 24 hrs by fluorescence based analysis; assay type: toxicity; settings: African green monkey (Chlorocebus sabaeus)
Plasmodium falciparum [3] = assay: Antimalarial activity against chloroquine-resistant Plasmodium falciparum W2 assessed as growth inhibition incubated for 48 hrs by flow cytometry based analysis; assay type: functional, organism-based; settings: W2, 48 h
[4] = Cytotoxicity against African monkey Vero cells assessed as reduction in cell viability incubated for 72 hrs by MTT assay; assay type: toxicity, cell-based; settings: chlorocebus sabaeus
Plasmodium falciparum [5] = assay: Antimalarial activity against chloroquine-sensitive Plasmodium falciparum 3D7 assessed as reduction in parasite growth incubated for 36 hrs by Giemsa staining based microscopic analysis; assay type: functional, organism-based; settings: 3D7, 36 h
Plasmodium falciparum [6] = assay: Antiplasmodial activity against chloroquine-resistant Plasmodium falciparum W2 assessed as parasitic growth inhibition incubated for 72 hrs by SYBR Green staining based fluorescence analysis; assay type: functional, organism-based; settings: W2, 72 h
Plasmodium falciparum [7] = assay: Antiplasmodial activity against chloroquine-sensitive Plasmodium falciparum 3D7 assessed as parasitic growth inhibition incubated for 72 hrs by SYBR Green staining based fluorescence analysis; assay type: functional, organism-based; settings: 3D7, 72 h
[8] = Cytotoxicity against African green monkey Vero cells assessed as reduction in cell viability incubated for 72 hrs by MTT assay; assay type: toxicity, cell-based; settings: chlorocebus sabaeus
Plasmodium falciparum [9] = assay: Antimalarial activity against chloroquine-sensitive Plasmodium falciparum 3D7 assessed as reduction in parasite growth incubated for 72 hrs by SYBR Green staining based fluorescence analysis; assay type: functional, organism-based; settings: 3D7, 72 h
Plasmodium falciparum [10] = assay: Antimalarial activity against chloroquine-resistant Plasmodium falciparum K1 assessed as reduction in parasite growth incubated for 72 hrs by SYBR Green staining based fluorescence analysis; assay type: functional, organism-based; settings: K1, 72 h
Plasmodium falciparum [11] = assay: Antiplasmodial activity against Plasmodium falciparum 3D7; assay type: functional, organism-based
Hemozoin [12] = assay: Inhibition of Beta-hematin formation in Plasmodium falciparum 3D7 by spectrophotometric analysis
Hemozoin [13] = assay: Inhibition of Beta-hematin formation in Plasmodium falciparum K1 by spectrophotometric analysis

N=C(N=C(N)N)SCCNc1ccnc2cc(C(F)(F)F)ccc12
CC50 [1]: > 10.9 µM

O=C1c2cccc(N3CCOCC3)c2C(=O)N1CCCNc1ccnc2cc(Cl)ccc12
IC50 at 24 h [2]: 222 µM
IC50 (Plasmodium falciparum [3]): 0.276 µM

N=C(N=C(N)N)SCCCCNc1ccnc2cc(C(F)(F)F)ccc12
CC50 [1]: > 10.2 µM

O=C(Cn1cc(COc2ccc(Cl)cc2)nn1)NCCCNc1ccnc2cc(Cl)ccc12
CC50 at 72 h [4]: 27.1 µM
IC50 (Plasmodium falciparum [5]): 90 µM

CC1(C)OB(c2ccc(OCc3cn(CCCNc4ccnc5cc(Cl)ccc45)nn3)cc2C=O)OC1(C)C
IC50 (Plasmodium falciparum [6]): 4.64 µM
IC50 (Plasmodium falciparum [7]): 5.18 µM

CCN(CC)CC(CC(C)C)N(C)c1ccnc2cc(Cl)ccc12 (centres undefined)
CC50 at 72 h [8]: 60.3 µM
IC50 (Plasmodium falciparum [9]): 0.23 µM
IC50 (Plasmodium falciparum [10]): 0.54 µM

N=C(N=C(N)N)SCCCCNc1ccnc2cc(Cl)ccc12
CC50 [1]: > 11 µM

C[C@H]1[C@@H](O)O[C@@H]2O[C@@]3(C)CC[C@H]4[C@H](C)CC[C@@H]1[C@@]24OO3 [ARTENIMOL]
IC50 (Plasmodium falciparum [6]): 0.001 µM
IC50 (Plasmodium falciparum [5]): 0.002 µM

CN(c1ccnc2cc(Cl)ccc12)C(Cc1ccccc1)CN1CCCC1 (centres undefined)
CC50 at 72 h [8]: 57.8 µM
IC50 (Plasmodium falciparum [9]): 0.06 µM
IC50 (Plasmodium falciparum [10]): 0.1 µM

Cc1ccc(C(CCN(C)C)NCC(C)Nc2ccnc3cc(Cl)ccc23)cc1 (centres undefined)
IC50 (Plasmodium falciparum [11]): 5.17 µM

O=C(Cn1cc(COc2ccccc2)nn1)NCCCNc1ccnc2cc(Cl)ccc12
CC50 at 72 h [4]: 40.6 µM
IC50 (Plasmodium falciparum [5]): 180 µM

OC(c1cc(C(F)(F)F)nc2c(C(F)(F)F)cccc12)C1CCCCN1 (centres undefined) [MEFLOQUINE]
IC50 (Plasmodium falciparum [6]): 0.024 µM

OB1OCc2ccc(OCc3cn(-c4ccnc5ccc(Cl)cc45)nn3)cc21
IC50 (Plasmodium falciparum [6]): 5.22 µM
IC50 (Plasmodium falciparum [7]): 4.87 µM

COc1ccc(C(CCN2CCOCC2)NCC(C)Nc2ccnc3cc(Cl)ccc23)cc1 (centres undefined)
IC50 (Plasmodium falciparum [11]): 3.89 µM

O=C(Cn1cc(COc2ccc(Cl)cc2)nn1)NCCCCCCNc1ccnc2cc(Cl)ccc12
CC50 at 72 h [4]: 7.41 µM
IC50 (Plasmodium falciparum [5]): 263 µM

Cc1ccc(OCc2cn(CC(=O)NCCCNc3ccnc4cc(Cl)ccc34)nn2)cc1
CC50 at 72 h [4]: > 208 µM
IC50 (Plasmodium falciparum [5]): 91.9 µM

N=C(N=C(N)N)SCCNc1ccnc2cc(Cl)ccc12
CC50 [1]: > 11.8 µM

CN(CCCN1CCCC1)c1ccnc2cc(C(F)(F)F)ccc12
CC50 at 72 h [8]: 78.2 µM
IC50 (Plasmodium falciparum [9]): 0.09 µM
IC50 (Plasmodium falciparum [10]): 0.31 µM

O=C(Cn1cc(COc2ccc(Cl)cc2)nn1)NCCCCNc1ccnc2cc(Cl)ccc12
CC50 at 72 h [4]: 10.9 µM
IC50 (Plasmodium falciparum [5]): 92.8 µM

O=C(Cn1cc(COc2ccc(Br)cc2)nn1)NCCNc1ccnc2cc(Cl)ccc12
CC50 at 72 h [4]: 78.2 µM
IC50 (Plasmodium falciparum [5]): 0.04 µM

Cc1ccc(C(CCN2CCOCC2)NCC(C)Nc2ccnc3cc(Cl)ccc23)cc1 (centres undefined)
IC50 (Plasmodium falciparum [11]): 2.94 µM

O=C1c2cccc(N3CCCCC3)c2C(=O)N1CCCNc1ccnc2cc(Cl)ccc12
IC50 at 24 h [2]: 55.8 µM
IC50 (Plasmodium falciparum [3]): 0.162 µM

CC(C)CC(CN1CCCCC1)N(C)c1ccnc2cc(Cl)ccc12 (centres undefined)
IC50 (Plasmodium falciparum [9]): 0.15 µM
IC50 (Plasmodium falciparum [10]): 0.42 µM

Cc1ccc(OCc2cn(CC(=O)NCCCCNc3ccnc4cc(Cl)ccc34)nn2)cc1
CC50 at 72 h [4]: 5.02 µM
IC50 (Plasmodium falciparum [5]): 83.5 µM

COc1ccc(C(CCN(Cc2ccccc2)Cc2ccccc2)NCC(C)Nc2ccnc3cc(Cl)ccc23)cc1 (centres undefined)
IC50 (Plasmodium falciparum [11]): 2.4 µM

Cc1ccc(C(CCN(Cc2ccccc2)Cc2ccccc2)NCC(C)Nc2ccnc3cc(Cl)ccc23)cc1 (centres undefined)
IC50 (Plasmodium falciparum [11]): 2.59 µM

CN(c1ccnc2cc(Cl)ccc12)C(Cc1ccccc1)CN1CCCCC1 (centres undefined)
CC50 at 72 h [8]: 69.7 µM
IC50 (Plasmodium falciparum [9]): 0.28 µM
IC50 (Plasmodium falciparum [10]): 0.49 µM

O=C(Cn1cc(COc2ccc(Br)cc2)nn1)NCCCNc1ccnc2cc(Cl)ccc12
CC50 at 72 h [4]: 75.5 µM
IC50 (Plasmodium falciparum [5]): 38.8 µM

CCN(CC)CCC(NCC(C)Nc1ccnc2cc(Cl)ccc12)c1ccccc1 (centres undefined)
IC50 (Plasmodium falciparum [11]): 3.84 µM

O=C(Cn1cc(COc2ccc(Br)cc2)nn1)NCCCCCCNc1ccnc2cc(Cl)ccc12
CC50 at 72 h [4]: 112 µM
IC50 (Plasmodium falciparum [5]): 0.307 µM

CC(CNC(CCN1CCOCC1)c1ccccc1)Nc1ccnc2cc(Cl)ccc12 (centres undefined)
IC50 (Plasmodium falciparum [11]): 2.94 µM

O=Cc1cc(OCc2cn(CCCNc3ccnc4cc(Cl)ccc34)nn2)ccc1Br
IC50 (Plasmodium falciparum [6]): 7.09 µM
IC50 (Plasmodium falciparum [7]): 6.29 µM

CC1(C)OB(c2ccc(OCc3cn(-c4ccnc5ccc(Cl)cc45)nn3)cc2C=O)OC1(C)C
IC50 (Plasmodium falciparum [6]): 6.19 µM
IC50 (Plasmodium falciparum [7]): 6.49 µM

CCN(CC)CC(Cc1ccccc1)N(C)c1ccnc2cc(Cl)ccc12 (centres undefined)
CC50 at 72 h [8]: 79 µM
IC50 (Plasmodium falciparum [9]): 0.21 µM
IC50 (Plasmodium falciparum [10]): 0.33 µM

O=C1c2ccc(N3CCOCC3)cc2C(=O)N1CCNc1ccnc2cc(Cl)ccc12
IC50 at 24 h [2]: 28.6 µM
IC50 (Plasmodium falciparum [3]): 0.37 µM

CCc1nc(N)nc(N)c1-c1ccc(Cl)cc1 [PYRIMETHAMINE]
CC50 [1]: 18.1 µM

CN(c1ccnc2cc(Cl)ccc12)C(Cc1ccccc1)CN1CCOCC1 (centres undefined)
CC50 at 72 h [8]: 33.5 µM
IC50 (Plasmodium falciparum [9]): 1.2 µM
IC50 (Plasmodium falciparum [10]): 1.38 µM

CN(CCCN1CCCC1)c1ccnc2cc(Cl)ccc12
CC50 at 72 h [8]: 80.2 µM
IC50 (Plasmodium falciparum [9]): 0.19 µM
IC50 (Plasmodium falciparum [10]): 0.11 µM

O=C(Cn1cc(COc2ccc(Cl)cc2)nn1)NCCNc1ccnc2cc(Cl)ccc12
CC50 at 72 h [4]: 28.9 µM
IC50 (Plasmodium falciparum [5]): 0.04 µM

CC(C)CC(CN1CCCCC1)N(C)c1ccnc2cc(C(F)(F)F)ccc12 (centres undefined)
CC50 at 72 h [8]: 42.6 µM
IC50 (Plasmodium falciparum [9]): 2 µM
IC50 (Plasmodium falciparum [10]): 2.04 µM

N=C(N=C(N)N)SCCCNc1ccnc2cc(C(F)(F)F)ccc12
CC50 [1]: > 10.6 µM

CN(CCCN1CCCCC1)c1ccnc2cc(Cl)ccc12
CC50 at 72 h [8]: 107 µM
IC50 (Plasmodium falciparum [9]): 0.04 µM
IC50 (Plasmodium falciparum [10]): 0.06 µM

O=Cc1cc(OCc2cn(CCN3CCN(c4ccnc5cc(Cl)ccc45)CC3)nn2)ccc1Br
IC50 (Plasmodium falciparum [6]): 8.26 µM
IC50 (Plasmodium falciparum [7]): 8.34 µM

O=Cc1cc(OCc2cn(CCNc3ccnc4cc(Cl)ccc34)nn2)ccc1Br
IC50 (Plasmodium falciparum [6]): 5.07 µM
IC50 (Plasmodium falciparum [7]): 4.3 µM

CCN(CC)CCC(NCC(C)Nc1ccnc2cc(Cl)ccc12)c1ccc(C)cc1 (centres undefined)
IC50 (Plasmodium falciparum [11]): 5.27 µM

CCN(CC)CC(CC(C)C)N(C)c1ccnc2cc(C(F)(F)F)ccc12 (centres undefined)
CC50 at 72 h [8]: 52 µM
IC50 (Plasmodium falciparum [9]): 3.8 µM
IC50 (Plasmodium falciparum [10]): 2.5 µM

CC(C)CC(CN1CCCC1)N(C)c1ccnc2cc(Cl)ccc12 (centres undefined)
CC50 at 72 h [8]: 47 µM
IC50 (Plasmodium falciparum [9]): 0.08 µM
IC50 (Plasmodium falciparum [10]): 0.18 µM

O=C(Cn1cc(-c2ccccc2)nn1)NCCCNc1ccnc2cc(Cl)ccc12
CC50 at 72 h [4]: 41.5 µM
IC50 (Plasmodium falciparum [5]): 0.137 µM

CCN(CC)CCC(NCC(C)Nc1ccnc2cc(Cl)ccc12)c1ccc(OC)cc1 (centres undefined)
IC50 (Plasmodium falciparum [11]): 2.41 µM

COc1ccc(C(CCN(C)C)NCC(C)Nc2ccnc3cc(Cl)ccc23)cc1 (centres undefined)
IC50 (Plasmodium falciparum [11]): 8.25 µM

CC1(C)OB(c2ccc(OCc3cn(CCNc4ccnc5cc(Cl)ccc45)nn3)cc2C=O)OC1(C)C
IC50 (Plasmodium falciparum [6]): 6.23 µM
IC50 (Plasmodium falciparum [7]): 7.37 µM

CC(C)CC(CN1CCOCC1)N(C)c1ccnc2cc(Cl)ccc12 (centres undefined)
CC50 at 72 h [8]: 50.8 µM
IC50 (Plasmodium falciparum [9]): 1.16 µM
IC50 (Plasmodium falciparum [10]): 1.19 µM

O=Cc1ccc(OCc2cn(CC(=O)NCCCNc3ccnc4cc(Cl)ccc34)nn2)cc1
CC50 at 72 h [4]: 12.2 µM
IC50 (Plasmodium falciparum [5]): 0.91 µM

CC(CNC(CCN(C)C)c1ccccc1)Nc1ccnc2cc(Cl)ccc12 (centres undefined)
IC50 (Plasmodium falciparum [11]): 3.43 µM

O=Cc1cc(OCc2cn(-c3ccnc4ccc(Cl)cc34)nn2)ccc1Br
IC50 (Plasmodium falciparum [6]): 7.39 µM
IC50 (Plasmodium falciparum [7]): 6.19 µM

CN(c1ccnc2cc(C(F)(F)F)ccc12)C(Cc1ccccc1)CN1CCCC1 (centres undefined)
CC50 at 72 h [8]: 39.2 µM
IC50 (Plasmodium falciparum [9]): 0.68 µM
IC50 (Plasmodium falciparum [10]): 1.77 µM

CC(C)CC(CN1CCN(C)CC1)N(C)c1ccnc2cc(Cl)ccc12 (centres undefined)
CC50 at 72 h [8]: 36.6 µM
IC50 (Plasmodium falciparum [9]): 0.06 µM
IC50 (Plasmodium falciparum [10]): 0.26 µM

CN(CCCN1CCOCC1)c1ccnc2cc(C(F)(F)F)ccc12
CC50 at 72 h [8]: 200 µM
IC50 (Plasmodium falciparum [9]): 0.88 µM
IC50 (Plasmodium falciparum [10]): 0.82 µM

FC(F)(F)c1ccc(-c2cncn2CCNc2ccnc3cc(Cl)ccc23)cc1
IC50 (Hemozoin [12]): 0.21 µM
IC50 (Hemozoin [13]): 0.45 µM

CC(CNC(CCN(Cc1ccccc1)Cc1ccccc1)c1ccccc1)Nc1ccnc2cc(Cl)ccc12 (centres undefined)
IC50 (Plasmodium falciparum [11]): 2.69 µM

Clc1ccc2c(NCCn3cncc3-c3cccc4ccccc34)ccnc2c1
IC50 (Hemozoin [12]): 5 µM
IC50 (Hemozoin [13]): 0.92 µM

CC(C)CC(CN1CCCC1)N(C)c1ccnc2cc(C(F)(F)F)ccc12 (centres undefined)
CC50 at 72 h [8]: 52 µM
IC50 (Plasmodium falciparum [9]): 1.24 µM
IC50 (Plasmodium falciparum [10]): 1.6 µM

CC(C)CC(CN1CCOCC1)N(C)c1ccnc2cc(C(F)(F)F)ccc12 (centres undefined)
CC50 at 72 h [8]: 68.6 µM
IC50 (Plasmodium falciparum [9]): 2.72 µM
IC50 (Plasmodium falciparum [10]): 2.25 µM
